Molecules are shown by their SMILES.

In one test the test system is NCI-H596. Kind of test: relative viability (nuclei count vs DMSO), 5 days (fraction); higher = more cells survive. The note with it: first compound 0.08 µM. The method in brief: (§1)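 Relative viability was taken as the ratio of nuclei in treated wells to nuclei in vehicle wells. Lung cancer cell lines in 1536-well plates received compounds by pin tool one day after seeding, either one drug alone or a fixed anchor-drug dose plus five library-drug doses (not always all listed) in √10 steps. Nuclei were counted on 4× images after 5 days of treatment, and values are medians of duplicate plates.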
For `CCCCCCCCCCCC1=C(O)C(=O)C=C(O)C1=O` [Embelin] + CS(=O)(=O)CCNCc1ccc(-c2ccc3ncnc(Nc4ccc(OCc5cccc(F)c5)c(Cl)c4)c3c2)o1 [Lapatinib] (partner 2 µM), the relative viability came to 1.17.
Molecule `CCCCCCCCCCCC1=C(O)C(=O)C=C(O)C1=O` [Embelin] + C[C@@H](Oc1cc(-c2cnn(C3CCNCC3)c2)cnc1N)c1c(Cl)ccc(F)c1Cl [Crizotinib] (partner 1 µM) gave a relative viability of 1.06.

The test is the same for the next values; noted with them: first compound 0.8 µM.
In the case of `CCCCCCCCCCCC1=C(O)C(=O)C=C(O)C1=O` [Embelin] + O=C(CCCCCCC(=O)Nc1ccccc1)NO [Vorinostat] (partner 1 µM), the relative viability was found to be 0.73.
The same measure, in the same setting: with `CCCCCCCCCCCC1=C(O)C(=O)C=C(O)C1=O` [Embelin] + C[C@]1(O)C[C@@H](c2nc(-c3ccc4ccc(-c5ccccc5)nc4c3)c3c(N)nccn32)C1 [Linsitinib] (partner 1 µM) the figure was 1.14; with `CCCCCCCCCCCC1=C(O)C(=O)C=C(O)C1=O` [Embelin] + CC(C)C[C@H](NC(=O)[C@H](Cc1ccccc1)NC(=O)c1cnccn1)B(O)O [Bortezomib] (partner 0.002 µM), 1.17; with `CCCCCCCCCCCC1=C(O)C(=O)C=C(O)C1=O` [Embelin] + CS(=O)(=O)CCNCc1ccc(-c2ccc3ncnc(Nc4ccc(OCc5cccc(F)c5)c(Cl)c4)c3c2)o1 [Lapatinib] (partner 2 µM), 1.07.
Still for that read-out and setting: with `CCCCCCCCCCCC1=C(O)C(=O)C=C(O)C1=O` [Embelin] + C[C@@H](Oc1cc(-c2cnn(C3CCNCC3)c2)cnc1N)c1c(Cl)ccc(F)c1Cl [Crizotinib] (partner 1 µM) the figure was 1.62.

The same test, now with this note: first compound 2.53 µM.
Regarding `CCCCCCCCCCCC1=C(O)C(=O)C=C(O)C1=O` [Embelin] + O=C(CCCCCCC(=O)Nc1ccccc1)NO [Vorinostat] (partner 1 µM), the relative viability amounted to 0.667.
On the same count and under the same terms, with `CCCCCCCCCCCC1=C(O)C(=O)C=C(O)C1=O` [Embelin] + C[C@]1(O)C[C@@H](c2nc(-c3ccc4ccc(-c5ccccc5)nc4c3)c3c(N)nccn32)C1 [Linsitinib] (partner 1 µM) the figure was 1.25.
On to `CCCCCCCCCCCC1=C(O)C(=O)C=C(O)C1=O` [Embelin] + CC(C)C[C@H](NC(=O)[C@H](Cc1ccccc1)NC(=O)c1cnccn1)B(O)O [Bortezomib] (partner 0.002 µM), for which the relative viability stood at 1.3.
Still for that read-out and setting: with `CCCCCCCCCCCC1=C(O)C(=O)C=C(O)C1=O` [Embelin] + CS(=O)(=O)CCNCc1ccc(-c2ccc3ncnc(Nc4ccc(OCc5cccc(F)c5)c(Cl)c4)c3c2)o1 [Lapatinib] (partner 2 µM) the figure was 1.12; with `CCCCCCCCCCCC1=C(O)C(=O)C=C(O)C1=O` [Embelin] + C[C@@H](Oc1cc(-c2cnn(C3CCNCC3)c2)cnc1N)c1c(Cl)ccc(F)c1Cl [Crizotinib] (partner 1 µM), 1.2.

Still in this test, the particulars now being: first compound 8 µM.
In turn, `CCCCCCCCCCCC1=C(O)C(=O)C=C(O)C1=O` [Embelin] + O=C(CCCCCCC(=O)Nc1ccccc1)NO [Vorinostat] (partner 1 µM) gave a relative viability of 0.495.
On the same count and under the same terms, with `CCCCCCCCCCCC1=C(O)C(=O)C=C(O)C1=O` [Embelin] + C[C@]1(O)C[C@@H](c2nc(-c3ccc4ccc(-c5ccccc5)nc4c3)c3c(N)nccn32)C1 [Linsitinib] (partner 1 µM) the figure was 1.05.
The same measure, in the same setting: with `CCCCCCCCCCCC1=C(O)C(=O)C=C(O)C1=O` [Embelin] + CC(C)C[C@H](NC(=O)[C@H](Cc1ccccc1)NC(=O)c1cnccn1)B(O)O [Bortezomib] (partner 0.002 µM) the figure was 0.87; with `CCCCCCCCCCCC1=C(O)C(=O)C=C(O)C1=O` [Embelin] + CS(=O)(=O)CCNCc1ccc(-c2ccc3ncnc(Nc4ccc(OCc5cccc(F)c5)c(Cl)c4)c3c2)o1 [Lapatinib] (partner 2 µM), 1.17.
On the same count and under the same terms, with `CCCCCCCCCCCC1=C(O)C(=O)C=C(O)C1=O` [Embelin] + C[C@@H](Oc1cc(-c2cnn(C3CCNCC3)c2)cnc1N)c1c(Cl)ccc(F)c1Cl [Crizotinib] (partner 1 µM) the figure was 1.01.

The subject of the next test is LOU-NH91. Described as above. Particulars: first compound 0.08 µM. The method, boiled down:
as §1
For the molecule `CCCCCCCCCCCC1=C(O)C(=O)C=C(O)C1=O` [Embelin] + O=C(CCCCCCC(=O)Nc1ccccc1)NO [Vorinostat] (partner 1 µM), the relative viability amounted to 0.939.
On the same count and under the same terms, the value for `CCCCCCCCCCCC1=C(O)C(=O)C=C(O)C1=O` [Embelin] + C[C@]1(O)C[C@@H](c2nc(-c3ccc4ccc(-c5ccccc5)nc4c3)c3c(N)nccn32)C1 [Linsitinib] (partner 1 µM) was 1.02.
Still for that read-out and setting: the value for `CCCCCCCCCCCC1=C(O)C(=O)C=C(O)C1=O` [Embelin] + CC(C)C[C@H](NC(=O)[C@H](Cc1ccccc1)NC(=O)c1cnccn1)B(O)O [Bortezomib] (partner 0.002 µM) was 0.554; that for `CCCCCCCCCCCC1=C(O)C(=O)C=C(O)C1=O` [Embelin] + CS(=O)(=O)CCNCc1ccc(-c2ccc3ncnc(Nc4ccc(OCc5cccc(F)c5)c(Cl)c4)c3c2)o1 [Lapatinib] (partner 2 µM) was 0.823; that for `CCCCCCCCCCCC1=C(O)C(=O)C=C(O)C1=O` [Embelin] + C[C@@H](Oc1cc(-c2cnn(C3CCNCC3)c2)cnc1N)c1c(Cl)ccc(F)c1Cl [Crizotinib] (partner 1 µM) was 0.764.

The same test, now with this note: first compound 0.8 µM.
`CCCCCCCCCCCC1=C(O)C(=O)C=C(O)C1=O` [Embelin] + O=C(CCCCCCC(=O)Nc1ccccc1)NO [Vorinostat] (partner 1 µM) had a relative viability of 1.2.
On the same count and under the same terms, the value for `CCCCCCCCCCCC1=C(O)C(=O)C=C(O)C1=O` [Embelin] + C[C@]1(O)C[C@@H](c2nc(-c3ccc4ccc(-c5ccccc5)nc4c3)c3c(N)nccn32)C1 [Linsitinib] (partner 1 µM) was 1.23; that for `CCCCCCCCCCCC1=C(O)C(=O)C=C(O)C1=O` [Embelin] + CC(C)C[C@H](NC(=O)[C@H](Cc1ccccc1)NC(=O)c1cnccn1)B(O)O [Bortezomib] (partner 0.002 µM) was 0.578.
`CCCCCCCCCCCC1=C(O)C(=O)C=C(O)C1=O` [Embelin] + CS(=O)(=O)CCNCc1ccc(-c2ccc3ncnc(Nc4ccc(OCc5cccc(F)c5)c(Cl)c4)c3c2)o1 [Lapatinib] (partner 2 µM) returned a relative viability of 0.99.
Same read-out and setting: the value for `CCCCCCCCCCCC1=C(O)C(=O)C=C(O)C1=O` [Embelin] + C[C@@H](Oc1cc(-c2cnn(C3CCNCC3)c2)cnc1N)c1c(Cl)ccc(F)c1Cl [Crizotinib] (partner 1 µM) was 0.751.

The same test, now with this note: first compound 2.53 µM.
`CCCCCCCCCCCC1=C(O)C(=O)C=C(O)C1=O` [Embelin] + O=C(CCCCCCC(=O)Nc1ccccc1)NO [Vorinostat] (partner 1 µM): the relative viability worked out at 0.933.

The values above are taken from the supplement of paper PMC10307832.
